Measurements as given in PubChem BioAssay (NCI).
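The compound was tested at five concentrations on cells cultured in 96-well plates, with a 48-hour exposure period. TGI denotes the concentration required for complete inhibition of growth.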

Columns and labels:
Experiment in all cases: growth of human tumour cells (NCI), 48 h
[1] = system: SF-295 CNS
[2] = system: SK-MEL-2 melanoma
[3] = system: MDA-MB-435
[4] = system: CCRF-CEM leukemia
[5] = system: UO-31 renal
[6] = system: SF-539 CNS
[7] = system: OVCAR-5 ovarian
[8] = system: MDA-N
[9] = system: HL-60(TB) leukemia
[10] = system: HS 578T breast
[11] = system: MALME-3M melanoma
[12] = system: T-47D breast
[13] = system: DU-145 prostate
[14] = system: SNB-19 CNS
[15] = system: COLO 205 colon
[16] = system: K-562 leukemia
[17] = system: ACHN renal

SMILES | TGI [1] [µM] | TGI [2] [µM] | TGI [3] [µM] | TGI [4] [µM] | TGI [5] [µM] | TGI [6] [µM] | TGI [7] [µM] | TGI [8] [µM] | TGI [9] [µM] | TGI [10] [µM] | TGI [11] [µM] | TGI [12] [µM] | TGI [13] [µM] | TGI [14] [µM] | TGI [15] [µM] | TGI [16] [µM] | TGI [17] [µM]
CC[C@H](C)C1=C(O)[N@+]2([O-])Oc3ccc(-c4c(O)c(O)c(-c5ccc(OC(C)=O)cc5)c(OC(C)=O)c4OC(C)=O)cc3O[C@]2([C@@H](C)CC)C(=O)N1O | > 50 | > 50 | > 50 | 23.8 | > 50 | > 50 | > 50 | > 50 | > 50 | > 50 | > 50 | > 50 | > 50 | > 50 | > 50 | 31.5 | > 50
c1ccc(N=c2sc3ccccc3sc2=Nc2ccccc2)cc1 | 12.5 | 3.45 | 3.99 | > 100 | 2.93 | 3.42 | 3.83 | 3.05 | > 100 | 7.51 | 3.57 | 3.56 | 17.1 | 16.7 | 3.69 | > 100 | 3.03
COc1ccc2oc(=O)c(CC=C(C)C)c(O)c2c1C | > 100 | > 100 | > 100 | > 100 | > 100 | > 100 | > 100 | > 100 | > 100 | > 100 | > 100 | > 100 | > 100 | > 100 | > 100 | > 100 | > 100
Cc1cc(S(=O)(=O)NC2=NC(c3ccccc3)c3ccccc3N2)c(S)cc1Cl (configuration not stated) | > 100 |  | > 100 | > 100 | 46.5 | > 100 | > 100 | > 100 | > 100 | > 100 | > 100 | > 100 | > 100 | > 100 | > 100 | > 100 | > 100
CC(=O)c1nc2ccccc2n1CC(=O)c1ccc(Cl)cc1 | 43.7 | 78.1 | > 100 | > 100 | > 100 | > 100 |  | > 100 | > 100 | > 100 | 22.6 | > 100 | > 100 | > 100 | 53 | > 100 | 
O=C(O)Cc1cccc2c1OC(c1ccccc1)C(C(=O)c1ccccc1)C2=O (configuration not stated) | > 100 |  | > 100 | > 100 | > 100 | > 100 | > 100 | > 100 | 50.9 | > 100 | > 100 | 56.9 | > 100 | > 100 | > 100 | > 100 | > 100
CN(C)c1nc(=NCc2cccs2)ss1 | > 10 |  | > 10 | 1.83 | > 10 | > 10 | > 10 | > 10 | 2.16 | > 10 | > 10 | > 10 | > 10 | > 10 | > 10 | > 10 | > 10
CN(C)/C=C(\C(=O)c1ccccc1)n1nc(-c2ccccc2)cc1-c1ccccc1 | > 10 | > 10 | > 10 | > 10 |  | > 10 | > 10 | > 10 | > 10 | > 10 | > 10 | > 10 | > 10 | > 10 | > 10 |  | > 10
OCc1ccc2c(c1)CC1(C2)Cc2cc3c(cc2C1)CCC3 | > 44.5 | > 100 | 0.615 | > 100 | > 100 | > 100 | > 100 | 1.74 | > 100 | 29.3 | > 100 | > 100 | > 100 | > 100 |  | > 100 | > 82.4
CC(C)(C)OC(=O)NC(Cc1ccc(OCc2ccccc2)cn1)C(=O)NCc1ccccc1 (configuration not stated) | 51.6 | 35.7 | 48.1 | 43.5 | 82.9 |  | > 100 | 43.8 | 33.7 | > 100 | 65.7 | 56.5 | > 100 | > 100 | 30.8 | > 100 | > 100
Cn1c(=O)c2c(nc(N)n2C2OC(CO)C(O)C2O)n(C)c1=O (configuration not stated) | > 100 |  | > 100 | > 100 | > 100 | > 100 | > 100 | > 100 | > 100 | > 100 | > 100 | > 100 | > 100 | > 100 | > 100 | > 100 | > 100
Cc1cc(S(=O)(=O)n2ccnc2Oc2ccccc2)c(SSc2cc(Cl)c(C)cc2S(=O)(=O)n2ccnc2Oc2ccccc2)cc1Cl |  | > 100 | > 100 |  | > 100 | > 100 | > 100 | > 100 | > 100 | 38.6 | > 100 | > 100 | > 100 | > 100 | > 100 | > 100 | 
COC(=O)[C@@H]1C2OC(C)(C)OC2CN1C(=O)OCc1ccccc1 (some centres not stated) | > 100 | > 100 | > 100 |  | > 100 | > 100 | > 100 | > 100 | > 100 | > 100 | > 100 | > 100 | > 100 | > 100 | > 100 | > 100 | > 100
CCCN(CCC)c1cc2c(cc1F)c(=O)c(C(=O)O)cn2-c1ccc(N2CCN(C)CC2)cn1 | 33.6 |  | 38.9 | 36.7 | 32.2 | 32.6 | 41.3 | 40.1 | 26.1 | 35.1 | 27.9 | 38.8 | 45.3 | 31.5 | 27.1 | 55.1 | 
